Where two headings read alike, the source gives them in different places.
Legend:
[1] = Acute mouse study, metabolite identification in blood and urine by LC-MS/MS; assay type: in vivo; conditions: oral 50 mg/kg
Protocol: An acute mouse study was performed under ethical approval from the Ethics Committee for Research on Animals (ECRA) of the South African Medical Research Council (Ref:07/13). Three 8-week old male C57.BKS mice, obtained from the Primate Unit of the South African Medical Research Council (Tygerberg, South Africa), were housed individually in polycarbonate cages with wired lids and kept in a controlled environment of 23–24 °C, 50% humidity, and a 12 h light/dark cycle. Prior to the study, urine was collected from the fasting mice overnight in a metabolic cage. Baseline fasted blood was collected via tail snip into a heparin tube, snap frozen in liquid nitrogen, and stored at −80 °C. Each mouse received a single dose of synthetic aspalathin (50 mg/kg body weight) dissolved in phosphate-buffered saline (PBS) (5 mg/mL) via orogastric gavage. Blood samples were collected and handled as described for fasting at time 0 (pre-gavage), and 1, 2, 4, 6, and 8 h post-gavage. All the samples were collected into the same heparin tube and kept on ice during the experiment. Urine was collected over the 8-h post-gavage monitoring period and the samples were stored at −80 °C until analysis.
The frozen whole blood samples, as well as the samples incubated with microsomes and controls, were thawed, extracted by protein precipitation using 0.1% formic acid (FA) in acetonitrile, centrifuged and filtered through 0.22 µm polyvinylidene difluoride (PVDF) filters (Merck Millipore, Frankfurter Straße, Darmstadt, Germany). Frozen whole urine samples were thawed and diluted 5 times in 0.1% aqueous FA. Samples were analysed by LC-MS/MS on an Agilent 1200 Rapid Resolution HPLC system (600 bar, Agilent Technologies) coupled to a 4000 QTRAP® (AB Sciex, Framingham, MA, USA) equipped with a Turbo V™ […]. Filtered samples (10 μL), stored on a sample tray maintained at 8 °C, were injected on a Gemini C6-Phenyl column (150 × 2.0 mm, 3 µm particles) (Phenomenex, Santa Clara, CA, USA) at 40 °C. […]

intestinal epithelium = test system: intestinal epithelium; set-up: method as in earlier work; conditions: ref 37 Huang et al., cited from earlier work
[2] = Lipophilicity, LogD7.4 (n-octanol / phosphate buffer shake flask); assay type: physicochemical; conditions: phosphate buffer pH 7.4 / n-octanol
Protocol: For determination of the lipophilicity of aspalathin, a 10 mM stock solution prepared in DMSO was used to spike (100 µM) a 1:1 mixture of phosphate buffer (pH 7.4) and n-octanol. The solutions were shaken vigorously (1500 rpm) on an orbital shaker for 4 h at room temperature. Thereafter, the samples were centrifuged (3500 rpm, 2700× g) in order to fully separate the two immiscible fluids. The samples analysed using HPLC-DAD (Agilent 1200 Rapid Resolution HPLC) and the partition coefficient, LogD7.4 calculated.

[3] = Kinetic solubility assay (miniaturised shake flask); assay type: physicochemical; conditions: 2 h, 25 °C, 2% DMSO
Protocol: The kinetic solubility assay was performed using a miniaturised shake flask method. A 10 mM stock solution of aspalathin was used to prepare calibration standards (10–220 µM) in dimethyl sulphoxide (DMSO), and to spike (1:50) duplicate aqueous samples of phosphate buffered saline (pH 6.5), 0.01 M HCl (pH 2), and FaSSIF (pH 6.5), with a final DMSO concentration of 2%. After shaking for 2 h at 25 °C, the solutions were filtered (multiscreen filter plates, 0.45 µm low-binding, hydrophilic polytetrafluoroethylene (PTFE), Merck) and analysed by means of HPLC-DAD (Agilent 1200 Rapid Resolution HPLC; Agilent Technologies, Inc., Santa Clara, CA, USA). Best fit calibration curves were constructed using the calibration standards, which were used to determine the solubility of the aqueous samples [43].

O=C(CCc1ccc(O)c(O)c1)c1c(O)cc(O)c([C@@H]2O[C@H](CO)[C@@H](O)[C@H](O)[C@H]2O)c1O [Aspalathin]
detection of aspalathin and metabolites in blood ([1]; blood 1-8 h post-gavage): No aspalathin, nor any of its metabolites, could be detected
number of aspalathin metabolites detected in the urine ([1]; urine over 8 h): 13
transport of aspalathin (Papp) (intestinal epithelium; equal concentration of pure aspalathin): 2.48 ± 0.03 × 10^−6 cm/s
transport of aspalathin (Papp) (intestinal epithelium; from a green rooibos extract solution): 3.49 ± 1.45 × 10^−6 cm/s
Log D at pH 7.4 [2]: 0.13
Kinetic solubility at pH 2 ([3]; 0.01 M HCl (pH 2)): 153 µM
Kinetic solubility in FaSSIF at pH 6.5 ([3]; FaSSIF (pH 6.5)): 119 µM
Kinetic solubility at pH 6.5 ([3]; phosphate buffered saline (pH 6.5)): 123 µM
